Results from patent US7838256B2, “Assay and kit for drug efflux transporter activity” (Board of Regents of the University of Nebraska, priority 2007, dated 2010).

Tests used:
[1] = test system: MDR proteins; assay: Intracellular accumulation of calcein in MDCK-MDR1 cells in the presence of therapeutic agents and trypan blue; conditions: for Area Under the Curve ± SEM (intracellular calcein accumulation): monitored for 300 minutes; for interaction with MDR proteins (area under the curve of calcein vs control): summary statement
Protocol: Intracellular accumulation was monitored for 300 minutes in a 96-well format and the area under curve for each treatment was determined. The larger the area under the curve, the greater the intracellular accumulation of calcein and, by extension, the greater the influence of the therapeutic agent on MDR protein activity.

[2] = test system: MDR proteins; assay: Intracellular accumulation of fluorescent drug efflux probes in BBMEC cells with trypan blue; type: cell-based, bovine; conditions: calcein-AM 1 μM, BCECF-AM 1 μM, rhodamine 123 3.2 μM, 0.04% or 0.1% trypan blue
Protocol: (§1) FIGS. 1A-1C show intracellular accumulation of calcein-AM (1 μM) in Madin-Darby canine kidney cells transfected with human MDR1 gene (MDCK-MDR1; FIG. 1A); human, […], colon adenocarcinoma cells (Caco2; FIG. 1B); and bovine brain microvessel endothelial cells (BBMEC, FIG. 1C) exposed to MDR1 inhibitor GF120918, MRP inhibitor indomethacin, or GF120918 in combination with indomethacin. Trypan blue (0.04%) was used to quench extracellular fluorescence.
(§2) FIGS. 2A-2C show intracellular accumulation of BCECF-AM (1 μM) in MDCK-MDR1 (FIG. 2A), Caco2 (FIG. 2B), and BBMEC (FIG. 2C) cells exposed to MDR1 inhibitor GF120918, MRP inhibitor indomethacin, or GF120918 in combination with indomethacin. Trypan blue (0.04%) was used to quench extracellular fluorescence.
(§3) FIGS. 3A-3C show intracellular accumulation of rhodamine 123 (3.2 μM) in MDCK-MDR1 (FIG. 3A), Caco2 (FIG. 3B), and BBMEC (FIG. 3C) cells exposed to MDR1 inhibitor GF120918, MRP inhibitor indomethacin, or GF120918 in combination with indomethacin. Trypan blue (0.1%) was used to quench extracellular fluorescence. […]

[3] = test system: MDR proteins; assay: Intracellular accumulation of fluorescent drug efflux probes in MDCK-MDR1 cells with trypan blue; type: cell-based, human; conditions: calcein-AM 1 μM, BCECF-AM 1 μM, rhodamine 123 3.2 μM, 0.04% or 0.1% trypan blue
[4] = target: T1, MDR1 (Homo sapiens, UniProt P08183)
T1 sequence (P08183 whole entry, species assumed): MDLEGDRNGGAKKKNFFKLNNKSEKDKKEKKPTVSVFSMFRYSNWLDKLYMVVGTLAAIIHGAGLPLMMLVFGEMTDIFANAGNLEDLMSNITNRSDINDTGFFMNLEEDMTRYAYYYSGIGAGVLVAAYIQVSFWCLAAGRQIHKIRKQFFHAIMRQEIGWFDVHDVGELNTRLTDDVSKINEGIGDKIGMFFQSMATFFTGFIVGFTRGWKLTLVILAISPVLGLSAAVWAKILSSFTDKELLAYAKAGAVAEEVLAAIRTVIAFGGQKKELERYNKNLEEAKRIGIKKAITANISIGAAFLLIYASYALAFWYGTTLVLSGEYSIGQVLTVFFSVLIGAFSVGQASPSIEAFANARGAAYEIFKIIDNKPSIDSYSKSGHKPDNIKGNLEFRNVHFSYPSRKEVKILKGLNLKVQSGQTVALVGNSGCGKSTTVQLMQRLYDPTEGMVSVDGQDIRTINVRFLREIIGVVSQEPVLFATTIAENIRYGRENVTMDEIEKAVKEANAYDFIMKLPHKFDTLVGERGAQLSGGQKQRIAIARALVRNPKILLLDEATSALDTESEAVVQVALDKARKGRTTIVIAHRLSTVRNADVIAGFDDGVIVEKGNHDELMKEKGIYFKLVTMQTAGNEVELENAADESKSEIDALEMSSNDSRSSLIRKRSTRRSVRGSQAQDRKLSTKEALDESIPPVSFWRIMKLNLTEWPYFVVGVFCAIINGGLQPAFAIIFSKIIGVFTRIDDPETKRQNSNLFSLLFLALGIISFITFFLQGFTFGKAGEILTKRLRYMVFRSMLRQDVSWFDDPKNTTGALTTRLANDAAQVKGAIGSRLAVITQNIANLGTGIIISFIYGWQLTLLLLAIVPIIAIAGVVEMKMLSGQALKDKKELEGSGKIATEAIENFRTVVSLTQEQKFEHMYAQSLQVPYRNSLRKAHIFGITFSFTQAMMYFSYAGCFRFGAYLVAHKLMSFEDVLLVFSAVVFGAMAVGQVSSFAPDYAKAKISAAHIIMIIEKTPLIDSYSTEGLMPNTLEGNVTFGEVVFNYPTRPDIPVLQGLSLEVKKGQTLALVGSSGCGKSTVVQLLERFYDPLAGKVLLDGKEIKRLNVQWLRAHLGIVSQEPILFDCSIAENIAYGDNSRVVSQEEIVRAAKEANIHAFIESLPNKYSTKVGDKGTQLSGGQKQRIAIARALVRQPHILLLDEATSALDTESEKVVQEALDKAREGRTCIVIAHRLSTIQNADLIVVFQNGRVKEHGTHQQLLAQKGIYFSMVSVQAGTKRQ

[5] = test system: MDR proteins; assay: Intracellular accumulation of fluorescent drug efflux probes in Caco2 cells with trypan blue; type: cell-based, human; conditions: calcein-AM 1 μM, BCECF-AM 1 μM, rhodamine 123 3.2 μM, 0.04% or 0.1% trypan blue
Protocol: as §1, §2, §3

[6] = target: T1, MDR1; conditions: isolated membranes; Homolya et al. (1993); read-out: Kd as activator of MDR1; cited from earlier work

| Compound | Ratio to Control (area under the curve) ([1]; 1 μM) | Area Under the Curve ± SEM (intracellular calcein accumulation) ([1]; 1 μM) | Ratio to Control (area under the curve) ([1]; 10 μM) | Area Under the Curve ± SEM (intracellular calcein accumulation) ([1]; 10 μM) | Ratio to Control (area under the curve) ([1]; 100 μM) | Area Under the Curve ± SEM (intracellular calcein accumulation) ([1]; 100 μM) | intracellular accumulation of calcein-AM, BCECF and rhodamine 123 [2] | intracellular accumulation of calcein-AM, BCECF and rhodamine 123 [3] | intracellular accumulation of calcein-AM, BCECF and rhodamine 123 [5] | interaction with MDR proteins (area under the curve of calcein vs control) [1] | further results |
| --- | --- | --- | --- | --- | --- | --- | --- | --- | --- | --- | --- |
| O=c1[nH]cc(F)c(=O)[nH]1 [5-Fluorouracil, 5-fluorouracil] | 1.20 | 3.07 ± 0.217 | 1.30 | 3.33 ± 0.269 | 0.87 | 2.24 ± 0.322 | – | – | – | – | – |
| COc1cc2c(cc1OC)CN(CCc1ccc(NC(=O)c3cccc4c(=O)c5cccc(OC)c5[nH]c34)cc1)CC2 [GF120918] | – | – | – | – | – | – | increase in the intracellular accumulation | increase in the intracellular accumulation | increase in the intracellular accumulation | – | initial fluorescence (uptake of rhodamine 123 at a single time point) [4]: greater initial fluorescence; Ratio to Control (area under the curve) ([1]; 3.2 μM): 8.81; Area Under the Curve ± SEM (intracellular calcein accumulation) ([1]; 3.2 μM): 22.57 ± 0.729 |
| Cc1nc2n(c(=O)c1CCN1CCC(c3noc4cc(F)ccc34)CC1)CCCC2 [Risperidone, risperidone] | 1.53 | 3.92 ± 0.412 | 2.19 | 5.62 ± 0.259 | 6.64 | 17.02 ± 0.310 | – | – | – | strong interaction with MDR proteins | – |
| CC(C)CN(C[C@@H](O)[C@H](Cc1ccccc1)NC(=O)O[C@H]1CCOC1)S(=O)(=O)c1ccc(N)cc1 [amprenavir] | – | 4.06 ± 0.518 | – | 5.44 ± 0.357 | – | 16.25 ± 0.798 | – | – | – | strong interaction with MDR proteins | – |
| COc1ccc2c(c1)c(CC(=O)O)c(C)n2C(=O)c1ccc(Cl)cc1 [indomethacin] | – | – | – | – | – | – | increase in the intracellular accumulation | increase in the intracellular accumulation | increase in the intracellular accumulation | – | – |
| calcein-acetoxy-methylester [Calcein-AM] | – | – | – | – | – | – | – | – | – | – | Kd [6]: ≤ 1000 nM |
